Results on two compounds are retold here after ChEMBL document CHEMBL4043267, “Synthesis of photocaged 6-O-(2-nitrobenzyl)guanosine and 4-O-(2-nitrobenzyl) uridine triphosphates for photocontrol of the RNA transcription reaction” (Bioorg Med Chem, 2017).

SMILES strings stand for the structures. Activity calls are given as the source filed them. The rule behind the calls is not given here.

One assay has as its target T7 RNA polymerase (Enterobacteria phage T7, UniProt P00573). Kind of assay: (§1) Inhibition of T7 RNA polymerase assessed as reduction in RNA product formation using double stranded DNA as substrate after 4 hrs in presence of NTPs by sybrGOLD staining based fluorescence assay (reference value: 100%). Further details: species or system Escherichia phage T7.
The target of assay [1] is T7 RNA polymerase (Enterobacteria phage T7) (UniProt P00573). The description is as §1. Particulars: Escherichia phage T7.
T7 RNA polymerase (Enterobacteria phage T7), sequence (P00573 whole entry): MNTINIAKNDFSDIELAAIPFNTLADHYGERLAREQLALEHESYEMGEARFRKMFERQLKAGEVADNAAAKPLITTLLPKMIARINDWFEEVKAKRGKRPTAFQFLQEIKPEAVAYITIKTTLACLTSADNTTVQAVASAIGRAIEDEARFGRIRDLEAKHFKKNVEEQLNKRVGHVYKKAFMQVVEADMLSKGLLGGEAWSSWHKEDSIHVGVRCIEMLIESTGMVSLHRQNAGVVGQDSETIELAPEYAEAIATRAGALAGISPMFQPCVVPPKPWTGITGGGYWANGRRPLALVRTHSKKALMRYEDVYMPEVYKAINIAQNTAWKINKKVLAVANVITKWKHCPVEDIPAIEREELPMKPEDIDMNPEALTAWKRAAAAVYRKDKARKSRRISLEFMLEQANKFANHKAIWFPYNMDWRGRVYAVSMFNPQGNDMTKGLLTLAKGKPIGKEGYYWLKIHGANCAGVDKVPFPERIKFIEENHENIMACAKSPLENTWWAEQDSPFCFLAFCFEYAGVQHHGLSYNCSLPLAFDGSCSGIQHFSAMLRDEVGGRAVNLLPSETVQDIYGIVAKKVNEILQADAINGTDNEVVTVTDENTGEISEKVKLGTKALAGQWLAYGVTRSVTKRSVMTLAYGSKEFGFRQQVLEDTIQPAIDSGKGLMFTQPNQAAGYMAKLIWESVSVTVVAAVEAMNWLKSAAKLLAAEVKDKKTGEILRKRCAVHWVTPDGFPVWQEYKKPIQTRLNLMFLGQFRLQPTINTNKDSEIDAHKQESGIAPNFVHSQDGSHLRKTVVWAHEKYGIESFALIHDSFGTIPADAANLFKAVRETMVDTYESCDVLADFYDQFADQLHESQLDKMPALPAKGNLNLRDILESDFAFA
The target is the same in assay [2]. As to the kind of experiment: Inhibition of T7 RNA polymerase assessed as reduction in RNA product formation at 2 mM using double stranded DNA as substrate incubated in presence of UV irradiation for 40 secs followed by enzyme addition measured after 4 hrs in presence of NTPs by sybrGOLD staining based fluorescence assay relative to control. Particulars: Escherichia phage T7. Also noted: scale not given: the % may be the effect or the level left.

The target is the same in assay [3]. As to the kind of experiment: Inhibition of T7 RNA polymerase assessed as RNA product formation at 1 mM using double stranded DNA as substrate after 4 hrs in presence of NTPs by sybrGOLD staining based fluorescence assay (reference value: 100%). Also noted: scale not given: the % may be the effect or the level left. Particulars: Escherichia phage T7.
For assay [4] the target is unchanged. Kind of assay: Inhibition of T7 RNA polymerase assessed as RNA product formation at 10 mM using double stranded DNA as substrate after 4 hrs in presence of NTPs by sybrGOLD staining based fluorescence assay (reference value: 100%). Also noted: scale not given: the % may be the effect or the level left. Particulars: Escherichia phage T7.
Assay [5] has the same target. As to the kind of experiment: Inhibition of T7 RNA polymerase assessed as RNA product formation at 2 mM using double stranded DNA as substrate incubated in presence of UV irradiation for 1 sec followed by enzyme addition measured after 4 hrs in presence of NTPs by sybrGOLD staining based fluorescence assay relative to control. Also noted: scale not given: the % may be the effect or the level left. Particulars: Escherichia phage T7.

The target is the same in assay [6]. Kind of assay: Inhibition of T7 RNA polymerase assessed as RNA product formation at 2 mM using double stranded DNA as substrate after 4 hrs in presence of NTPs by sybrGOLD staining based fluorescence assay (reference value: 100%). Further details: scale not given: the % may be the effect or the level left. Particulars: Escherichia phage T7.
The target is the same in assay [7]. As to the kind of experiment: Inhibition of T7 RNA polymerase assessed as RNA product formation at 2 mM using double stranded DNA as substrate incubated in presence of UV irradiation for 5 secs followed by enzyme addition measured after 4 hrs in presence of NTPs by sybrGOLD staining based fluorescence assay relative to control. Further details: scale not given: the % may be the effect or the level left. Particulars: Escherichia phage T7.

Assay [8] shares this target. Kind of assay: Inhibition of T7 RNA polymerase assessed as RNA product formation at 0.2 mM using double stranded DNA as substrate after 4 hrs in presence of NTPs by sybrGOLD staining based fluorescence assay (reference value: 100%). Particulars: Escherichia phage T7. Also noted: scale not given: the % may be the effect or the level left.
Assay [9] shares this target. As to the kind of experiment: Inhibition of T7 RNA polymerase assessed as RNA product formation at 2 mM using double stranded DNA as substrate incubated in presence of UV irradiation for 10 secs followed by enzyme addition measured after 4 hrs in presence of NTPs by sybrGOLD staining based fluorescence assay relative to controll. Further details: scale not given: the % may be the effect or the level left. Particulars: Escherichia phage T7.

Assay [10] shares this target. As to the kind of experiment: Inhibition of T7 RNA polymerase assessed as reduction in RNA product formation at 2 mM using double stranded DNA as substrate incubated in absence of UV irradiation followed by enzyme addition measured after 4 hrs in presence of NTPs by sybrGOLD staining based fluorescence assay relative to control. Particulars: Escherichia phage T7.
Assay [11] has the same target. As to the kind of experiment: Inhibition of T7 RNA polymerase assessed as RNA product formation at 0.5 mM using double stranded DNA as substrate after 4 hrs in presence of ATP/UTP/CTP by sybrGOLD staining based fluorescence assay (reference value: 100%). Further details: scale not given: the % may be the effect or the level left. Particulars: Escherichia phage T7.

Assay [12] has the same target. As to the kind of experiment: Inhibition of T7 RNA polymerase assessed as RNA product formation at 5 mM using double stranded DNA as substrate after 4 hrs in presence of NTPs by sybrGOLD staining based fluorescence assay (reference value: 100%). Also noted: scale not given: the % may be the effect or the level left. Particulars: Escherichia phage T7.
The target is the same in assay [13]. Kind of assay: Inhibition of T7 RNA polymerase assessed as reduction in RNA product formation at 2 mM using double stranded DNA as substrate incubated in presence of UV irradiation for 60 secs followed by enzyme addition measured after 4 hrs in presence of NTPs by sybrGOLD staining based fluorescence assay relative to control. Further details: scale not given: the % may be the effect or the level left. Particulars: Escherichia phage T7.

For assay [14] the target is unchanged. Kind of assay: Inhibition of T7 RNA polymerase assessed as RNA product formation at 2 mM using double stranded DNA as substrate incubated in presence of UV irradiation for 20 secs followed by enzyme addition measured after 4 hrs in presence of NTPs by sybrGOLD staining based fluorescence assay relative to control. Also noted: scale not given: the % may be the effect or the level left. Particulars: Escherichia phage T7.

The target is the same in assay [15]. As to the kind of experiment: Inhibition of T7 RNA polymerase assessed as reduction in RNA product formation at 2 mM using double stranded DNA as substrate after 4 hrs in absence of NTPs by sybrGOLD staining based fluorescence assay (reference value: 100%). Particulars: Escherichia phage T7.

T7 RNA polymerase, sequence (P00573 whole entry): as above

Regarding `O=c1nc(OCc2ccccc2[N+](=O)[O-])ccn1[C@@H]1O[C@H](COP(=O)(O)OP(=O)(O)OP(=O)(O)O)[C@@H](O)[C@H]1O`, the IC50 on T7 RNA polymerase stood at 5 mM. Besides, the inhibition result in assay [1] is “Dose-dependent effect”. Moreover, the Activity in [2] was 66%; in assay [3] it was 73%; in assay [4], 8%; in assay [5] it was 67%; in [6], 63 to 70%; in assay [7] it was 81%. The Activity in assay [8] worked out at 94%; in assay [9] it was 72%; in assay [11] it was 84%; in assay [12], 39%; in assay [13] it was 60%; in assay [14], 70%. Moreover, in assay [10], the inhibition result is “Active”.

On to `Nc1nc(OCc2ccccc2[N+](=O)[O-])c2ncn([C@@H]3O[C@H](COP(=O)(O)OP(=O)(O)OP(=O)(O)O)[C@@H](O)[C@H]3O)c2n1`, for which the IC50 on T7 RNA polymerase was found to be 5 mM. In addition, in assay [1], the inhibition result was “Dose-dependent effect”. Also, the Activity in assay [2] is 64%; in [3] it was 87%; in [4], 13%; in assay [5] it was 4%; in assay [6] it was 60 to 64%; in assay [7] it was 41%. Moreover, the Activity in [8] was found to be 89%; in assay [9], 53%; in assay [11], 89%; in assay [12] it was 47%; in assay [13] it was 62%; in assay [14] it was 62%. For the same compound, the inhibition entry in assay [15] and in [10] was “Active” throughout.
